23 molecules from patent US9221795B2, “Phosphatidylinositol 3-kinase inhibitors” (Gilead Sciences, Inc., priority 2013, dated 2015) can be followed below.

This experiment has as its target PI3Kδ (Homo sapiens (Human), UniProt O00329). The experiment can be described thus: Enzymatic activity of PI3K isoforms, TR-FRET assay (PI3Kδ). The following applies: 2× Km ATP, geometric mean if more than one value. The experiment is classed as biochemical. How it is done:
Enzymatic activity of the class I PI3K isoforms in the presence of the compounds of Table 1 and Compounds X, Y and Z was measured using a time-resolved fluorescence resonance energy transfer (TR-FRET) assay. The TR-FRET assay was used to monitor formation of the product 3,4,5-inositol triphosphate molecule (PIP3) as it competed with fluorescently labeled PIP3 for binding to the GRP-1 pleckstrin homology domain protein. An increase in […] product results in a decrease in TR-FRET signal as the labeled fluorophore is displaced from the GRP-1 protein binding site.
Class I PI3K isoforms were expressed and purified as heterodimeric recombinant proteins. All assay reagents and buffers for the TR-FRET assay were purchased from Millipore. PI3K isoforms were assayed under initial rate conditions in the presence of 25 mM Hepes (pH 7.4), and 2× Km ATP (75-500 μM), 2 μM PIP2, 5% glycerol, 5 mM MgCl2, 50 mM NaCl, 0.05% (v/v) Chaps, 1 mM dithiothreitol, 1% (v/v) DMSO at the following concentrations for each isoforms: PI3Kα, PI3Kβ, and PI3Kδ between 25 and 50 pM, and PI3Kγ at 2 nM. After an assay reaction time of 30 minutes at 25° C., reactions were terminated with a final concentration of 10 mM EDTA, 10 nM labeled-PIP3, and 35 nM Europium labeled GRP-1 detector protein before reading TR-FRET on an Envision plate reader (Ex: 340 nm; Em: 615/665 nm; […] delay and 500 μs read window).
Data were normalized based on positive ([…] wortmanin) and negative (DMSO) controls. α, β, δ, and γ IC50 values were calculated from the fit of the dose-response curves to a four-parameter equation. All IC50 values represent geometric mean values if more than one value was obtained. IC50 values were reported in units of nM.
For orientation: Time-resolved FRET reads energy transfer from a long-lived donor to a nearby acceptor.

Each structure is given as a SMILES string.

Sequence of PI3Kδ (O00329 whole entry, the tested form may be a part, canonical isoform): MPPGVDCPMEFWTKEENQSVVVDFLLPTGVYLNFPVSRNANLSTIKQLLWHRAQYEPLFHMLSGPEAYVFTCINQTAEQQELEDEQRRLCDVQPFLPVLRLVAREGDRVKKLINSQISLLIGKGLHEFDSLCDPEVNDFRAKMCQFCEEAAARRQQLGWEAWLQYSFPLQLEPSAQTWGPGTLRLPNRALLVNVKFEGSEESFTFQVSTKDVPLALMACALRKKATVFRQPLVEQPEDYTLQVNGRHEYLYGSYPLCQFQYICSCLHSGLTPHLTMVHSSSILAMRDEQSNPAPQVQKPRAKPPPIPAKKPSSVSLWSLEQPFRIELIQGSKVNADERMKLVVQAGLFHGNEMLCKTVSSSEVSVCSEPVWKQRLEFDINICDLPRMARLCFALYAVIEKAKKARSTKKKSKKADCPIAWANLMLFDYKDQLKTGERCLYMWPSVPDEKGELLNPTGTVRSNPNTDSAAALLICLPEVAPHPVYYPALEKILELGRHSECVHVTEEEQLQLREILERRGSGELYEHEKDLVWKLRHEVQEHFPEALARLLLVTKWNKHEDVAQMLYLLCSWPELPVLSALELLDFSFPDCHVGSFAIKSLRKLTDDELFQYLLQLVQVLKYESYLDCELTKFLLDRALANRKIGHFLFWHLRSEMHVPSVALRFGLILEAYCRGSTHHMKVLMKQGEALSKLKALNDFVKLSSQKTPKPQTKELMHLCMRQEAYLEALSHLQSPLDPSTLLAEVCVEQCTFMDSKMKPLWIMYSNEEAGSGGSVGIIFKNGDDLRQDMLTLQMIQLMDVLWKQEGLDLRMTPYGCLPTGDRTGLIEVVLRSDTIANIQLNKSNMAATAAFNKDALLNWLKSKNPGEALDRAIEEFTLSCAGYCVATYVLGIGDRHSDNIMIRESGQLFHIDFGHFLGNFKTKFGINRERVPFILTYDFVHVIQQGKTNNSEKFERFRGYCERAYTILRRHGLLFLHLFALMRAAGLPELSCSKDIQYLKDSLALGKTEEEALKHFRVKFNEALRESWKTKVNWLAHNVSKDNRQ
Sequence of PI3Kδ (P27986 whole entry partner, the tested form may be a part, canonical isoform): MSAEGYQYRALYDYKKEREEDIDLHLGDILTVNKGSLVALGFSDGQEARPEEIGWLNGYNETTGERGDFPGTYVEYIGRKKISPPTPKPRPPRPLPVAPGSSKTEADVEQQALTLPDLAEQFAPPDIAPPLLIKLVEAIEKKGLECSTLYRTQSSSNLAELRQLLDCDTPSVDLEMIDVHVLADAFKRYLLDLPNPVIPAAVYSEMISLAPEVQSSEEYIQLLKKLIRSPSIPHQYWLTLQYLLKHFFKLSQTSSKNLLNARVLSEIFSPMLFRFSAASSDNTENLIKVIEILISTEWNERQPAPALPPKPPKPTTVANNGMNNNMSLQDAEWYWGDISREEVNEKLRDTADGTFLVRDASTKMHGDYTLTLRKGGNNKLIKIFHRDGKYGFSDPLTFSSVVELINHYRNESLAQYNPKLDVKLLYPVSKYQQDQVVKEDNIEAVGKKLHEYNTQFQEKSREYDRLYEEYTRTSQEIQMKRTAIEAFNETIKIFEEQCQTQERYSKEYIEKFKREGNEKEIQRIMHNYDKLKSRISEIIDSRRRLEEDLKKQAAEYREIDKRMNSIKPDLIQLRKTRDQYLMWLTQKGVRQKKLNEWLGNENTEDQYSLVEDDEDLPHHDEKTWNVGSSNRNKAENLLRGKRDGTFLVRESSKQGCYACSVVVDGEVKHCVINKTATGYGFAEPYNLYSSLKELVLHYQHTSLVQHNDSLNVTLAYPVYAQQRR

In turn, `Cc1c(F)cncc1-n1c([C@@H](Nc2nc(N)nc(N)c2C#N)C2CC2)nc2c(F)ccc(Cl)c2c1=O` (atropisomer, axis not shown) [Compound 65, (S)-2,4-Diamino-6-(((5-chloro-8-fluoro-3-(5-fluoro-4-methylpyridin-3-yl)-4-oxo-3,4-dihydroquinazolin-2-yl)(cyclopropyl)methyl)amino)pyrimidine-5-carbonitrile] yielded an IC50 of 42 nM.

For `Cc1ccncc1-n1c([C@H](C)Nc2nc(N)nc(N)c2C#N)nc2cccc(C(F)(F)F)c2c1=O` (atropisomer, axis not shown) [Compound 80, (S)-2,4-Diamino-6-((1-(3-(4-methylpyridin-3-yl)-4-oxo-5-(trifluoromethyl)-3,4-dihydroquinazolin-2-yl)ethyl)amino)pyrimidine-5-carbonitrile], the IC50 came to 27 nM.

Regarding `C[C@H](Nc1nc(N)nc(N)c1C#N)c1nc2c(F)ccc(C#N)c2c(=O)n1-c1cncc(F)c1` [Compound 62, (S)-2-(1-((2,6-diamino-5-cyanopyrimidin-4-yl)amino)ethyl)-8-fluoro-3-(5-fluoropyridin-3-yl)-4-oxo-3,4-dihydroquinazoline-5-carbonitrile], half-maximal inhibition (IC50) was put at 42 nM. This IC50 is about 1.6-fold higher than that of the molecule before.

`C[C@H](Nc1nc(N)nc(N)c1Cl)c1nc2cccc(Cl)c2c(=O)n1-c1cncc(F)c1` [Compound 51, (S)-5-Chloro-2-(1-((2,6-diamino-5-chloropyrimidin-4-yl)amino)ethyl)-3-(5-fluoropyridin-3-yl)quinazolin-4(3h)-one]: the IC50 came to 7 nM. This IC50 is about 6-fold lower than that of the molecule before.

Molecule `CC[C@H](Nc1nc(N)nc(N)c1C#N)c1nc2cccc(Cl)c2c(=O)n1-c1cncc(F)c1C` (atropisomer, axis not shown) [Compound 72, (S)-2,4-diamino-6-((1-(5-chloro-3-(5-fluoro-4-methylpyridin-3-yl)-4-oxo-3,4-dihydroquinazolin-2-yl)propyl)amino)pyrimidine-5-carbonitrile] returned an IC50 of 1 nM.

On to `Cc1ncc(F)cc1-n1c([C@H](C)Nc2nc(N)nc(N)c2C#N)nc2cccc(Cl)c2c1=O` (atropisomer, axis not shown) [Compound 44, (S)-2,4-diamino-6-(1-(5-chloro-3-(5-fluoro-2-methylpyridin-3-yl)-4-oxo-3,4-dihydroquinazolin-2-yl)ethylamino)pyrimidine-5-carbonitrile], for which the IC50 turned out to be 34 nM.

Molecule `Cc1c(F)cncc1-n1c([C@@H](C)Nc2nc(N)nc(N)c2C#N)nc2cccc(Cl)c2c1=O` (atropisomer, axis not shown) [Compound 114, (R)-2,4-diamino-6-((1-(5-chloro-3-(5-fluoro-4-methylpyridin-3-yl)-4-oxo-3,4-dihydroquinazolin-2-yl)ethyl)amino)pyrimidine-5-carbonitrile] came in with an IC50 of 220 nM.

As for `N#Cc1c(N)nc(N)nc1N[C@H](c1nc2c(C#N)cc(F)cc2c(=O)n1-c1cncc(F)c1)C1CC1` [Compound 56, (S)-2-(Cyclopropyl((2,6-diamino-5-cyanopyrimidin-4-yl)amino)methyl)-6-fluoro-3-(5-fluoropyridin-3-yl)-4-oxo-3,4-dihydroquinazoline-8-carbonitrile], the IC50 worked out at 30 nM.

On to `C[C@H](Nc1nc(N)nc(N)c1C#N)c1nc2c(F)ccc(Br)c2c(=O)n1-c1cncc(F)c1` [Compound 60, (S)-2,4-diamino-6-((1-(5-bromo-8-fluoro-3-(5-fluoropyridin-3-yl)-4-oxo-3,4-dihydroquinazolin-2-yl)ethyl)amino)pyrimidine-5-carbonitrile], for which half-maximal inhibition (IC50) required 1 nM.

On to `Cc1c(F)cncc1-n1c([C@@H](Nc2nc(N)nc(N)c2C#N)C2CC2)nc2cccc(Cl)c2c1=O` (atropisomer, axis not shown) [Compound 70, (S)-2,4-diamino-6-(((5-chloro-3-(5-fluoro-4-methylpyridin-3-yl)-4-oxo-3,4-dihydroquinazolin-2-yl)(cyclopropyl)methyl)amino)pyrimidine-5-carbonitrile], for which the IC50 came to 3 nM.

On to `Cc1c(F)cncc1-n1c([C@H](C)Nc2nc(N)nc(N)c2C#N)nc2c(F)ccc(Cl)c2c1=O` (atropisomer, axis not shown) [Compound 73, (S)-2,4-diamino-6-((1-(5-chloro-8-fluoro-3-(5-fluoro-4-methylpyridin-3-yl)-4-oxo-3,4-dihydroquinazolin-2-yl)ethyl)amino)pyrimidine-5-carbonitrile], for which the IC50 stood at 59 nM.

Turning to `C[C@H](Nc1nc(N)nc(N)c1C#N)c1nc2c(F)ccc(Br)c2c(=O)n1-c1cccnc1` [Compound 64, (S)-2,4-diamino-6-((1-(5-bromo-8-fluoro-4-oxo-3-(pyridin-3-yl)-3,4-dihydroquinazolin-2-yl)ethyl)amino)pyrimidine-5-carbonitrile], the IC50 amounted to 0.6 nM.

Take `Cc1c(F)cncc1-n1c([C@H](C)Nc2nc(N)nc(N)c2C#N)nc2ccc(F)cc2c1=O` (atropisomer, axis not shown) [Compound 75, (S)-2,4-diamino-6-((1-(6-fluoro-3-(5-fluoro-4-methylpyridin-3-yl)-4-oxo-3,4-dihydroquinazolin-2-yl)ethyl)amino)pyrimidine-5-carbonitrile]: half-maximal inhibition (IC50) required 510 nM.

The molecule `Cc1cncc(-n2c([C@H](C)Nc3nc(N)nc(N)c3C#N)nc3cccc(Cl)c3c2=O)c1C` (atropisomer, axis not shown) [Compound 77, (S)-2,4-diamino-6-((1-(5-chloro-3-(4,5-dimethylpyridin-3-yl)-4-oxo-3,4-dihydroquinazolin-2-yl)ethyl)amino)pyrimidine-5-carbonitrile] returned an IC50 of 75 nM.

With `CC(C)C[C@H](Nc1nc(N)nc(N)c1C#N)c1nc2cccc(Cl)c2c(=O)n1-c1cccnc1` [Compound 58, (S)-2,4-Diamino-6-((1-(5-chloro-4-oxo-3-(pyridin-3-yl)-3,4-dihydroquinazolin-2-yl)-3-methylbutyl)amino)pyrimidine-5-carbonitrile], the IC50 came to 14 nM.

`Cc1cncc(-n2c([C@H](C)Nc3nc(N)nc(N)c3C#N)nc3cccc(Cl)c3c2=O)c1C` (atropisomer, axis not shown) [Compound 78, (S)-2,4-diamino-6-((1-(5-chloro-3-(4,5-dimethylpyridin-3-yl)-4-oxo-3,4-dihydroquinazolin-2-yl)ethyl)amino)pyrimidine-5-carbonitrile] yielded an IC50 of 0.8 nM.

Molecule `N#Cc1ccc(F)c2nc([C@@H](Nc3nc(N)nc(N)c3Cl)C3CC3)n(-c3cccnc3)c(=O)c12` [Compound 59, (S)-2-(cyclopropyl((2,6-diamino-5-chloropyrimidin-4-yl)amino)methyl)-8-fluoro-4-oxo-3-(pyridin-3-yl)-3,4-dihydroquinazoline-5-carbonitrile] registered an IC50 of 380 nM.

Regarding `C[C@H](Nc1nc(N)nc(N)c1Cl)c1nc2cccc(S(C)(=O)=O)c2c(=O)n1-c1cccnc1` [Compound 49, (S)-2-(1-((2,6-diamino-5-chloropyrimidin-4-yl)amino)ethyl)-5-(methylsulfonyl)-3-(pyridin-3-yl)quinazolin-4(3H)-one], the IC50 came to 67 nM.

Take `Cc1c(F)cncc1-n1c([C@@H](Nc2nc(N)nc(N)c2C#N)C2CC2)nc2c(F)ccc(Cl)c2c1=O` (atropisomer, axis not shown) [Compound 66, (S)-2,4-Diamino-6-(((5-chloro-8-fluoro-3-(5-fluoro-4-methylpyridin-3-yl)-4-oxo-3,4-dihydroquinazolin-2-yl)(cyclopropyl)methyl)amino)pyrimidine-5-carbonitrile]: half-maximal inhibition (IC50) required 3 nM. Against the preceding molecule, the IC50 is about 22-fold lower.

Molecule `C[C@H](Nc1nc(N)nc(N)c1C#N)c1nc2c(C#N)cc(F)cc2c(=O)n1-c1cccnc1` [Compound 54, (S)-2-(1-((2,6-Diamino-5-cyanopyrimidin-4-yl)amino)ethyl)-6-fluoro-4-oxo-3-(pyridin-3-yl)-3,4-dihydroquinazoline-8-carbonitrile] returned an IC50 of 10 nM.

Molecule `CC[C@@H](Nc1nc(N)nc(N)c1C#N)c1nc2c(F)ccc(Cl)c2c(=O)n1-c1cccnc1` [Compound 111, (R)-2,4-Diamino-6-((1-(5-chloro-8-fluoro-4-oxo-3-(pyridin-3-yl)-3,4-dihydroquinazolin-2-yl)propyl)amino)pyrimidine-5-carbonitrile] showed an IC50 of 9 nM. The IC50 values of the last two molecules are within 1.5-fold of each other.

Regarding `Cc1c(F)cncc1-n1c([C@@H](Nc2nc(N)nc(N)c2C#N)C2CC2)nc2cccc(Cl)c2c1=O` (atropisomer, axis not shown) [Compound 69, (S)-2,4-diamino-6-(((5-chloro-3-(5-fluoro-4-methylpyridin-3-yl)-4-oxo-3,4-dihydroquinazolin-2-yl)(cyclopropyl)methyl)amino)pyrimidine-5-carbonitrile], the IC50 is 60 nM. Compared with the last molecule, the IC50 is about 6.7-fold higher.

Take `Cc1c(F)cncc1-n1c([C@H](C)Nc2nc(N)nc(N)c2C#N)nc2ccc(F)cc2c1=O` (atropisomer, axis not shown) [Compound 76, (S)-2,4-diamino-6-((1-(6-fluoro-3-(5-fluoro-4-methylpyridin-3-yl)-4-oxo-3,4-dihydroquinazolin-2-yl)ethyl)amino)pyrimidine-5-carbonitrile]: the IC50 came to 14 nM.

What is called IC50 is the point on the concentration scale where inhibition reaches its midpoint. Lower therefore signals greater potency in that assay.
